# Experimental data published in patent US20250019387A1 (Frontier Medicines Corporation, priority 0001, published 2025).
# Molecular target: KRAS G12C and cRAF (Ras-binding domain) interaction (Homo sapiens (Human), UniProt P01116, C118S/C51S/C80L/G12C)
# Experiment: Inhibition of KRAS G12C and cRAF binding (AlphaScreen)
# Details: GMPPNP-loaded KRAS G12C, 19-20 hours incubation with compound; read-out: IC50 (Inhibition of KRAS G12C and cRAF Binding)
# In short: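 Compounds (DMSO) preincubated 19-20 h at room temperature, then RBD with streptavidin donor and glutathione acceptor beads added in 25 mM Hepes pH 7.4, 150 mM NaCl, 5 mM MgCl2, 0.01% Triton X-100, 2% DMSO for 60-90 min. Emission 570 nm (excitation 680 nm); IC50 by 4-parameter fit. Counter-screen used biotin-AviTag-GST instead of RBD.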
# Sequence of KRAS G12C and cRAF (Ras-binding domain) interaction (P01116 other isoform, or with tags, fused parts or gaps G12C/C51S/C80L/C118S): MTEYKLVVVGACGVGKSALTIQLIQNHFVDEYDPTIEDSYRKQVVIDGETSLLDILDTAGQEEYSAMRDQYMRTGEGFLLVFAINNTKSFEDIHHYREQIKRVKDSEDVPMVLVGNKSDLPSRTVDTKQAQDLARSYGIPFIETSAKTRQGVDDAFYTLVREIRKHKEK
row,Compound,IC50
1,"CN(c1nc(OCC23CCCN2CCC3)nc2c(F)c(-c3cccc4cccc(Cl)c34)ncc12)[C@@H]1CCN(C(=O)/C=C/c2nc(C(C)(C)C)no2)C1 [Example 147, (R,E)-3-(3-(tert-butyl)-1,2,4-oxadiazol-5-yl)-1-(3-((7-(8-chloronaphthalen-1-yl)-8-fluoro-2-((hexahydro-1H-pyrrolizin-7a-yl)methoxy)pyrido[4,3-d]pyrimidin-4-yl)(methyl)amino)pyrrolidin-1-yl)prop-2-en-1-one]",10 to 100 nM
2,"CN(c1nc(OC[C@@]23CCCN2C[C@H](F)C3)nc2c1CCN(c1cccc3cccc(Cl)c13)C2)[C@@H]1CCN(C(=O)/C=C/c2nc(C(C)(C)C)no2)C1 [Example 148, (E)-3-(3-(tert-butyl)-1,2,4-oxadiazol-5-yl)-1-((R)-3-((7-(8-chloronaphthalen-1-yl)-2-(((2R,7aS)-2-fluorohexahydro-1H-pyrrolizin-7a-yl)methoxy)-5,6,7,8-tetrahydropyrido[3,4-d]pyrimidin-4-yl)(methyl)amino)pyrrolidin-1-yl)prop-2-en-1-one]",100 to 500 nM
3,"CN(c1nc(OCC23CCCN2CCC3)nc2c1CCN(c1cccc3cccc(Cl)c13)C2)[C@@H]1CCN(C(=O)/C=C/c2nc(C(C)(C)C)no2)C1 [Example 149, (R,E)-3-(3-(tert-butyl)-1,2,4-oxadiazol-5-yl)-1-(3-((7-(8-chloronaphthalen-1-yl)-2-((hexahydro-1H-pyrrolizin-7a-yl)methoxy)-5,6,7,8-tetrahydropyrido[3,4-d]pyrimidin-4-yl)(methyl)amino)pyrrolidin-1-yl)prop-2-en-1-one]",10 to 100 nM
4,"CN(CC1CN(C(=O)/C=C/c2nc(C(F)F)no2)C1)c1nc(OCC23CCCN2CCC3)nc2c1CCN(c1cccc3cccc(Cl)c13)C2 [Example 150, (E)-1-(3-(((7-(8-chloronaphthalen-1-yl)-2-((hexahydro-1H-pyrrolizin-7a-yl)methoxy)-5,6,7,8-tetrahydropyrido[3,4-d]pyrimidin-4-yl)(methyl)amino)methyl)azetidin-1-yl)-3-(3-(difluoromethyl)-1,2,4-oxadiazol-5-yl)prop-2-en-1-one]",< 10 nM
5,"C=CC(=O)N1CC[C@@H](N(C)c2nc(OC[C@]34CCCN3C[C@@H](F)C4)nc3c(F)c(-c4cccc5ccc(F)c(Cl)c45)ncc23)C1 [Example 151, 1-((R)-3-((7-(8-chloro-7-fluoronaphthalen-1-yl)-8-fluoro-2-(((2S,7aR)-2-fluorohexahydro-1H-pyrrolizin-7a-yl)methoxy)pyrido[4,3-d]pyrimidin-4-yl)(methyl)amino)pyrrolidin-1-yl)prop-2-en-1-one]",> 500 nM
6,"CN(CC1CN(C(=O)/C=C/c2nc(C3COC3)no2)C1)c1nc(OC[C@@]23CCCN2C[C@H](F)C3)nc2c(F)c(-c3cccc4cccc(Cl)c34)ncc12 [Example 152, (E)-1-(3-(((7-(8-chloronaphthalen-1-yl)-8-fluoro-2-(((2R,7aS)-2-fluorotetrahydro-1H-pyrrolizin-7a(5H)-yl)methoxy)pyrido[4,3-d]pyrimidin-4-yl)(methyl)amino)methyl)azetidin-1-yl)-3-(3-(oxetan-3-yl)-1,2,4-oxadiazol-5-yl)prop-2-en-1-one]",< 10 nM
7,"CN(CC1CN(C(=O)/C=C/c2nc(C3COC3)no2)C1)c1nc(OCC23CCCN2CCC3)nc2c(F)c(-c3cccc4cccc(Cl)c34)ncc12 [Example 153, (E)-1-(3-(((7-(8-chloronaphthalen-1-yl)-8-fluoro-2-((tetrahydro-1H-pyrrolizin-7a(5H)-yl)methoxy)pyrido[4,3-d]pyrimidin-4-yl)(methyl)amino)methyl)azetidin-1-yl)-3-(3-(oxetan-3-yl)-1,2,4-oxadiazol-5-yl)prop-2-en-1-one]",10 to 100 nM
8,"CN(c1nc(OCC23CCCN2CCC3)nc2c1CCN(c1cccc3cccc(Cl)c13)C2)[C@@H]1CCN(C(=O)/C=C/c2nc(C3COC3)no2)C1 [Example 156, (R,E)-1-(3-((7-(8-chloronaphthalen-1-yl)-2-((hexahydro-1H-pyrrolizin-7a-yl)methoxy)-5,6,7,8-tetrahydropyrido[3,4-d]pyrimidin-4-yl)(methyl)amino)pyrrolidin-1-yl)-3-(3-(oxetan-3-yl)-1,2,4-oxadiazol-5-yl)prop-2-en-1-one]",10 to 100 nM
9,"C=CC(=O)N1C[C@@H](F)[C@H](N(C)c2nc(OCC34CCCN3CCC4)nc3c(F)c(-c4cccc5ccc(F)c(Cl)c45)ncc23)C1 [Example 184, 1-((3R,4R)-3-((7-(8-chloro-7-fluoronaphthalen-1-yl)-8-fluoro-2-((hexahydro-1H-pyrrolizin-7a-yl)methoxy)pyrido[4,3-d]pyrimidin-4-yl)(methyl)amino)-4-fluoropyrrolidin-1-yl)prop-2-en-1-one]",10 to 100 nM
10,"C=CC(=O)N1CC[C@@H](N(C)c2nc(OC[C@@]34CCCN3C[C@H](F)C4)nc3c(F)c(-c4cccc5ccc(F)c(CC)c45)ncc23)C1 [Example 185, 1-((R)-3-((7-(8-ethyl-7-fluoronaphthalen-1-yl)-8-fluoro-2-(((2R,7aS)-2-fluorotetrahydro-1H-pyrrolizin-7a(5H)-yl)methoxy)pyrido[4,3-d]pyrimidin-4-yl)(methyl)amino)pyrrolidin-1-yl)prop-2-en-1-one]",100 to 500 nM
11,"C#Cc1c(F)ccc2cccc(-c3ncc4c(N(C)[C@@H]5CCN(C(=O)C=C)C5)nc(OC[C@@]56CCCN5C[C@H](F)C6)nc4c3F)c12 [Example 187, 1-((R)-3-((7-(8-ethynyl-7-fluoronaphthalen-1-yl)-8-fluoro-2-(((2R,7aS)-2-fluorohexahydro-1H-pyrrolizin-7a-yl)methoxy)pyrido[4,3-d]pyrimidin-4-yl)(methyl)amino)pyrrolidin-1-yl)prop-2-en-1-one]",< 10 nM
12,"CN1CCOCC1C#CC(=O)N1CC[C@@H](N(C)c2nc(OC[C@@]34CCCN3C[C@H](F)C4)nc3c(F)c(-c4cccc5cccc(Cl)c45)ncc23)C1 (stereo partly drawn) [Example 188, 1-((R)-3-((7-(8-chloronaphthalen-1-yl)-8-fluoro-2-(((2R,7aS)-2-fluorohexahydro-1H-pyrrolizin-7a-yl)methoxy)pyrido[4,3-d]pyrimidin-4-yl)(methyl)amino)pyrrolidin-1-yl)-3-(4-methylmorpholin-3-yl)prop-2-yn-1-one]",100 to 500 nM

# The next lines start with the values.
row,IC50,Compound
1,< 10 nM,"CN(c1nc(OC[C@@]23CCCN2C[C@H](F)C3)nc2c1CCN(c1cccc3cccc(Cl)c13)C2)[C@@H]1CCN(C(=O)/C=C/c2nc(C3COC3)no2)C1 [Example 154, (E)-1-((R)-3-((7-(8-chloronaphthalen-1-yl)-2-(((2R,7aS)-2-fluorohexahydro-1H-pyrrolizin-7a-yl)methoxy)-5,6,7,8-tetrahydropyrido[3,4-d]pyrimidin-4-yl)(methyl)amino)pyrrolidin-1-yl)-3-(3-(oxetan-3-yl)-1,2,4-oxadiazol-5-yl)prop-2-en-1-one]"
2,< 10 nM,"CN(c1nc(OCC23CCCN2CCC3)nc2c(F)c(-c3cccc4cccc(Cl)c34)ncc12)[C@@H]1CCN(C(=O)/C=C/c2nc(C3COC3)no2)C1 [Example 155, (R,E)-1-(3-((7-(8-chloronaphthalen-1-yl)-8-fluoro-2-((tetrahydro-1H-pyrrolizin-7a(5H)-yl)methoxy)pyrido[4,3-d]pyrimidin-4-yl)(methyl)amino)pyrrolidin-1-yl)-3-(3-(oxetan-3-yl)-1,2,4-oxadiazol-5-yl)prop-2-en-1-one]"
3,< 10 nM,"CN(c1nc(OC[C@@]23CCCN2C[C@H](F)C3)nc2c(F)c(-c3cccc4cccc(Cl)c34)ncc12)[C@@H]1CCN(C(=O)/C=C/c2nc(C(F)F)no2)C1 [Example 157, (E)-1-((R)-3-((7-(8-chloronaphthalen-1-yl)-8-fluoro-2-(((2R,7aS)-2-fluorotetrahydro-1H-pyrrolizin-7a(5H)-yl)methoxy)pyrido[4,3-d]pyrimidin-4-yl)(methyl)amino)pyrrolidin-1-yl)-3-(3-(difluoromethyl)-1,2,4-oxadiazol-5-yl)prop-2-en-1-one]"
4,< 10 nM,"C=CC(=O)N1CC[C@@H](N(C)c2nc(OC[C@@]34CCCN3C[C@H](F)C4)nc3c(F)c(-c4cc(O)cc5ccccc45)ncc23)C1 [Example 158, 1-((R)-3-((8-fluoro-2-(((2R,7aS)-2-fluorohexahydro-1H-pyrrolizin-7a-yl)methoxy)-7-(3-hydroxynaphthalen-1-yl)pyrido[4,3-d]pyrimidin-4-yl)(methyl)amino)pyrrolidin-1-yl)prop-2-en-1-one]"
5,< 10 nM,"CN(c1nc(OC[C@@]23CCCN2C[C@H](F)C3)nc2c(F)c(-c3cccc4cccc(Cl)c34)ncc12)[C@@H]1CCN(C(=O)/C=C/c2nc(C3COC3)no2)C1 [Example 159, (E)-1-((R)-3-((7-(8-chloronaphthalen-1-yl)-8-fluoro-2-(((2R,7aS)-2-fluorohexahydro-1H-pyrrolizin-7a-yl)methoxy)pyrido[4,3-d]pyrimidin-4-yl)(methyl)amino)pyrrolidin-1-yl)-3-(3-(oxetan-3-yl)-1,2,4-oxadiazol-5-yl)prop-2-en-1-one]"
6,< 10 nM,"Cc1noc(/C=C/C(=O)N2CC[C@@H](N(C)c3nc(OC[C@@]45CCCN4C[C@H](F)C5)nc4c3CCN(c3cccc5cccc(Cl)c35)C4)C2)n1 [Example 178, (E)-1-((R)-3-((7-(8-chloronaphthalen-1-yl)-2-(((2R,7aS)-2-fluorohexahydro-1H-pyrrolizin-7a-yl)methoxy)-5,6,7,8-tetrahydropyrido[3,4-d]pyrimidin-4-yl)(methyl)amino)pyrrolidin-1-yl)-3-(3-methyl-1,2,4-oxadiazol-5-yl)prop-2-en-1-one]"
7,< 10 nM,"CN1CCC1C#CC(=O)N1CC[C@@H](N(C)c2nc(OC[C@@]34CCCN3C[C@H](F)C4)nc3c(F)c(-c4cccc5cccc(Cl)c45)ncc23)C1 (stereo partly drawn) [Example 186, 1-((R)-3-((7-(8-chloronaphthalen-1-yl)-8-fluoro-2-(((2R,7aS)-2-fluorohexahydro-1H-pyrrolizin-7a-yl)methoxy)pyrido[4,3-d]pyrimidin-4-yl)(methyl)amino)pyrrolidin-1-yl)-3-(1-methylazetidin-2-yl)prop-2-yn-1-one]"
